Data from patent US11033029B2, “Pyrazole amide compound and use thereof” (Shenyang Sinochem Agrochemicals R&D Co., Ltd., priority 2013, dated 2021).

Tests used:
[1] = test system: corn rust (Puccinia sorghi Schw); experiment: Protective effect against corn rust on potted plants; assay type: in vivo; details: protectant activity, parallel test
Experimental: (§1) Fungicidal activity of the compounds in the present invention against many kinds diseases were carried out. The procedure of fungicidal activity determination is as follows:
(§2) The fungicidal activity was tested in vivo manner on the potted plants. The test compounds of the present invention were dissolved in proper solvent (choosing the solvent according their dissolving ability to the compounds, the solvents could be acetone, methanol or N,N-dimethylformide, etc. The volume ratio between solvent and liquid sprayed was equal to or less than 0.05) and dilute with water contain 0.1% Tween 80 to given concentrations. Compounds of present invention was sprayed onto the leaves of seedling according to the designed concentration. Meanwhile, water was set as the blank control, three replicates were set for each treatment, the spore suspension were inoculated on the second day after treatment, then the plants were placed in an artificial climate chamber (temperature: day 25° C., night 20° C., relative humidity 95 to 100%). 24 hours later, the plants were moved to green house to cultivated. The plants which not need to control humidity was inoculated spore suspension in green house and cultivated in green house directly. The results were investigated after the plants were fully infected relative to the blank control (usually one week). The test results grading 100-0 refers to the <A Manual of Assessment Keys for Plant Diseases> which edited by American Phytopathological Society. “100” refer to no infection and “0” refer to the most serious infection
Protective effect against corn rust (Puccinia sorghi Schw):
According the test method described above, parallel test were carried out between compounds 1, 3, 7, 9, 11 and 21 of present invention and the known compounds KC1, KC2, KC3 and KC4.

[2] = test system: cucumber downy mildew (Pseudoperonospora cubensis (Berk.et Curt.) Rostov); experiment: Protective effect against cucumber downy mildew on potted plants; assay type: in vivo; details: 400 ppm, protectant activity, parallel test
Experimental: as §1, §2
Protective effect against cucumber downy mildew (Pseudoperonospora cubensis (Berk.et Curt.) Rostov)
According the test method described above, parallel test were carried out between compounds 2 and 11 of present invention and the known compounds KC1, KC2, KC3 and KC4 (they are the compounds 7g, 7f and 7a in Chinese Journal of Pesticide Science, 2011, 13(6): 576-580 and compound of 11 in CN1646494A, respectively).

| Compound | pest or weed control at 6.25 ppm [1] [%] | pest or weed control at 25 ppm [1] [%] | Control effect against cucumber downy mildew (%) [2] [%] |
| --- | --- | --- | --- |
| CC(C)Oc1cccc(NC(=O)c2cn(C)nc2C(F)F)c1 [Compound 1] | 100 | 100 |  |
| CCCC(C)Oc1cccc(NC(=O)c2cn(C)nc2C(F)F)c1 (stereo not drawn) [Compound 3] | 95 | 100 |  |
| CCC(CC)Oc1cccc(NC(=O)c2cn(C)nc2C(F)F)c1C [Compound 11] | 90 | 100 | 90 |
| C=C(C)Cc1c(NC(=O)c2cn(C)nc2C(F)F)cccc1OC(C)C [Compound 21] | 90 | 100 |  |
| Cn1cc(C(=O)Nc2ccccc2)c(C(F)F)n1 [KC1] | 0 | 60 | 0 |
| Cc1ccccc1NC(=O)c1cn(C)nc1C(F)F [KC2] | 0 | 0 | 0 |
| Cc1c(F)cccc1NC(=O)c1cn(C)nc1C(F)F [KC3] | 20 | 30 | 0 |
| Cn1cc(C(=O)Nc2ccc(F)cc2-c2ccc(Cl)c(Cl)c2)c(C(F)F)n1 [KC4, bixafen] | 0 | 50 | 0 |
